System: hiPSC clone FTi111
Experiment: Post-thaw recovery of hiPSC clone in various culture environments
Type: cell-based, human
Settings: conventional culture with feeder cells

## O=C(NCc1ccccc1)c1csc(Nc2ccncn2)n1 [Thiazovivin]
  recovery of hiPSC colonies after thaw: only recovered in the presence of Thiazovivin

Source: US11441126B2, “Platform for the induction and maintenance of ground state pluripotency” (Fate Therapeutics, Inc., priority 2015, dated 2022)
